Results reported in patent US20170121344A1 (Siga Technologies, Inc., priority 2009, published 2017).
Where two headings read alike, the source gives them in different places.

Test system: Dengue-2 (Strain New Guinea C)
Experiment: Viral yield assay against Dengue-2 in Vero cells
Type: cell-based, Dengue virus
Conditions: Dengue virus
How it was run: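 Vero cells were infected with dengue virus at an MOI of 0.1, treated with compound or DMSO vehicle, and kept at 37° C. Supernatant virus was harvested 48 hours post infection and titered on Vero cells, with EC50 derived from yield reduction.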

[1] = Vero cells, MOI 0.1, harvested 48 hours post infection, read-out: Activity (EC50 class) against Dengue-2 Virus in Vero cells
[2] = DENV2, viral yield assay, Vero cells, MOI 0.1, 48 hours post infection, read-out: Activity (EC50 in μM) DENV-2
[3] = Vero, 48 h, read-out: Activity (EC50 class) against Dengue-2 Virus in Vero cells

SMILES: CC(C)N1CCc2nc3sc(C(=O)Nc4ccc(C(F)(F)F)cc4)c(N)c3cc2C1 [Compound 60, 3-Amino-6-isopropyl-5,6,7,8-tetrahydro-thieno[2,3-b][1,6]naphthyridine-2-carboxylic acid (4-trifluoromethyl-phenyl)-amide]
- EC50 [1]: < 5 µM

SMILES: Nc1c(C(=O)Nc2nccs2)sc2nc3c(cc12)CCCCC3 [Compound 366, 3-amino-N-(thiazol-2-yl)-6,7,8,9-tetrahydro-5H-cyclohepta [b]thieno[3,2-e]pyridine-2-carboxamide]
- EC50 [2]: < 5 µM

SMILES: CN1CCc2nc3sc(C(=O)Nc4cc(Br)ccc4Br)c(N)c3cc2C1 [Compound 63, 3-Amino-6-methyl-5,6,7,8-tetrahydro-thieno[2,3-b][1,6]naphthyridine-2-carboxylic acid (2,5-dibromo-phenyl)-amide]
- EC50 [1]: < 5 µM

SMILES: COc1cccc(NC(=O)c2sc3nc(-c4cccc(OC)c4)ccc3c2N)c1 [Compound 503, 3-amino-N,6-bis(3-methoxyphenyl) thieno[2,3-b]pyridine-2-carboxamide]
- EC50 [2]: < 5 µM

SMILES: CCN1CCCC(NC(=O)c2sc3nc(C)cc(COC)c3c2N)C1 (centres unmarked) [Compound 147, 3-Amino-4-methoxymethyl-6-methyl-thieno[2,3-b]pyridine-2-carboxylic acid (1-ethyl-piperidin-3-yl)-amide]
- EC50 [1]: > 25 µM

SMILES: CCC1(C)Cc2c(c(N3CCOCC3)nc3sc4c(=O)[nH]cnc4c23)CO1 (centres unmarked) [Compound 261, 2-Ethyl-2-methyl-5-morpholin-4-yl-1,4-dihydro-2H,9H-3-oxa-7-thia-6,9,11-triaza-benzo[c]fluoren-8-one]
- EC50 [1]: > 25 µM

SMILES: Nc1c(C(=O)Nc2cccc(C(F)(F)F)c2)sc2nc(-c3ccc(F)cc3)ccc12 [Compound 456, 3-amino-6-(4-fluorophenyl)-N-[3-(trifluoromethyl)phenyl]thieno[2,3-b] pyridine-2-carboxamide]
- EC50 [2]: < 5 µM

SMILES: Nc1c(C(=O)Nc2ccccc2C(F)(F)F)sc2ncccc12 [Compound 424, 3-amino-N-[2-(trifluoromethyl)phenyl] thieno[2,3-b]pyridine-2-carboxamide]
- EC50 [2]: 5 to 25 µM

SMILES: COc1ccc(-c2ccc3c(N)c(C(=O)Nc4ccccc4)sc3n2)cc1OC [Compound 634, 3-amino-6-(3,4-dimethoxyphenyl)-N-phenyl-thieno[2,3-b]pyridine-2-carboxamide]
- EC50 [2]: < 5 µM

SMILES: Nc1c(C(=O)NCCc2ccccc2)sc2nc3c(cc12)CCCCC3 [Compound 205, 3-Amino-6,7,8,9-tetrahydro-5H-1-thia-10-aza-cyclohepta[f]indene-2-carboxylic acid phenethyl-amide]
- EC50 [1]: > 25 µM

SMILES: Nc1c(C(=O)Nc2ccc(C(=O)C(F)(F)F)cc2)sc2nc(-c3ccc(Cl)cc3)ccc12 [Compound 351, 3-amino-6-(4-chlorophenyl)-N-[4-(2,2,2-tri-fluoroacetyl)phenyl]thieno [2,3-b]pyridine-2-carboxamide]
- EC50 [2]: < 5 µM

SMILES: CN1CCc2nc3sc(C(=O)Nc4ccccc4F)c(N)c3cc2C1 [Compound 38, 3-Amino-6-methyl-5,6,7,8-tetrahydro-thieno[2,3-b][1,6]naphthyridine-2-carboxylic acid (2-fluoro-phenyl)-amide]
- EC50 [1]: < 5 µM

SMILES: COc1cccc(-c2ccc3c(N)c(C(=O)Nc4ccc(Br)cc4C)sc3n2)c1 [Compound 549, 3-amino-N-(4-bromo-2-methyl-phenyl)-6-(3-methoxyphenyl)thieno[2,3-b] pyridine-2-carboxamide]
- EC50 [2]: < 5 µM

SMILES: Cc1cc(C)c2c(N)c(C(=O)Nc3cccc(C(F)(F)F)c3)sc2n1 [Compound 9, 3-Amino-4,6-dimethyl-thieno[2,3-b]pyridine-2-carboxylic acid (3-trifluoromethyl-phenyl)-amide]
- EC50 [3]: < 5 µM

SMILES: C=CCn1cnc2c(sc3nc4c(cc32)COC(C)(C)C4)c1=O [Compound 202, 2-Allyl-8,8-dimethyl-8,9-dihydro-2H,6H-7-oxa-11-thia-2,4,10-triaza-benzo[b]fluoren-1-one]
- EC50 [1]: > 25 µM

SMILES: Cc1ccc2c(N)c(C(=O)Nc3cccc(C(F)(F)F)c3)sc2n1 [Compound 367, 3-amino-6-methyl-N-(3-(trifluoromethyl)phenyl)thieno[2,3-b] pyridine-2-carboxamide]
- EC50 [2]: < 5 µM

SMILES: Cc1ccc(-c2ccc3c(N)c(C(=O)Nc4ccccc4[N+](=O)[O-])sc3n2)cc1 [Compound 639, 3-amino-N-(2-nitrophenyl)-6-(p-tolyl) thieno[2,3-b]pyridine-2-carboxamide]
- EC50 [2]: < 5 µM

SMILES: Nc1c(C(=O)N2CCOCC2)sc2nc3c(cc12)CCCC3 [Compound 187, (3-Amino-5,6,7,8-tetrahydro-thieno[2,3-b]quinolin-2-yl)-morpholin-4-yl-methanone]
- EC50 [3]: > 25 µM

SMILES: COc1ccccc1C(C)N(C)C(=O)c1sc2nc(C)cc(C)c2c1C (centres unmarked) [Compound 409, N-[1-(2-methoxyphenyl)ethyl]-N,3,4,6-tetramethyl-thieno[2,3-b]pyridine-2-carboxamide]
- EC50 [2]: > 25 µM

SMILES: COc1cccc(-c2ccc3c(N)c(C(=O)Nc4cc(Cl)cc(Cl)c4)sc3n2)c1 [Compound 564, 3-amino-N-(3,5-dichlorophenyl)-6-(3-methoxyphenyl)thieno[2,3-b]pyridine-2-carboxamide]
- EC50 [2]: < 5 µM

SMILES: Cc1ccccc1NC(=O)c1sc2nc(-c3cccs3)ccc2c1N [Compound 477, 3-amino-N-(o-tolyl)-6-(2-thienyl)thieno [2,3-b]pyridine-2-carboxamide]
- EC50 (DENV2, Vero, 48 h, read-out: Activity (EC50 in μM) DENV-2): < 5 µM

SMILES: CC(=O)c1ccc(NC(=O)c2sc3nc4c(cc3c2N)CN(C)CC4)cc1 [Compound 43, 3-Amino-6-methyl-5,6,7,8-tetrahydro-thieno[2,3-b][1,6]naphthyridine-2-carboxylic acid (4-acetyl-phenyl)-amide]
- EC50 [1]: < 5 µM

SMILES: COc1cccc(-c2ccc3c(N)c(C(=O)Nc4ccc(F)c(F)c4)sc3n2)c1 [Compound 525, 3-amino-N-(3,4-difluorophenyl)-6-(3-methoxyphenyl)thieno[2,3-b]pyridine-2-carboxamide]
- EC50 [2]: < 5 µM

SMILES: COc1cccc(-c2ccc3c(N)c(C(=O)Nc4cc(C)ccc4C)sc3n2)c1 [Compound 626, 3-amino-N-(2,5-dimethylphenyl)-6-(3-methoxyphenyl)thieno[2,3-b]pyridine-2-carboxamide]
- EC50 [2]: < 5 µM

SMILES: COc1cccc(-c2ccc3c(N)c(C(=O)N(CCC(=O)O)c4ccc(OC(F)(F)F)cc4)sc3n2)c1 [Compound 354, 3-[N-[3-amino-6-(3-methoxy-phenyl)thieno[2,3-b]pyridine-2-carbonyl]-4-(tri-fluoro-methoxy)anili-no]propanoic acid]
- EC50 [2]: 5 to 25 µM

SMILES: CCNC(=O)c1cccc(NC(=O)c2sc3nc(C)cc(C)c3c2C)c1 [Compound 402, N-[3-(ethylcarbamoyl)phenyl]-3,4,6-trimethyl-thieno[2,3-b]pyridine-2-carboxamide]
- EC50 [2]: > 25 µM

SMILES: COc1ccc(-c2ccc3c(N)c(C(=O)Nc4cccc(Cl)c4)sc3n2)cc1OC [Compound 540, 3-amino-N-(3-chlorophenyl)-6-(3,4-dimethoxyphenyl)thieno[2,3-b]pyridine-2-carboxamide]
- EC50 [2]: < 5 µM

SMILES: Nc1c(C(=O)Nc2nnc(-c3ccccc3)s2)sc2ncc(C(=O)O)cc12 [Compound 291, 3-amino-2-[(5-phenyl-1,3,4-thiadiazol-2-yl)carbamoyl]thieno[2,3-b]pyridine-5-carboxylic acid]
- EC50 [2]: 5 to 25 µM

SMILES: Cc1ccc(-c2ccc3c(N)c(C(=O)Nc4ccccc4)sc3n2)cc1 [Compound 642, 3-amino-N-phenyl-6-(p-tolyl)thieno[2,3-b]pyridine-2-carboxamide]
- EC50 [2]: < 5 µM
